US20070093969A1, “Molecular nephrotoxicology modeling” (priority 2002, published 2007)

Tested on: kidney tissue gene expression
Conditions: rat, in vivo

SMILES: ClC(Cl)Cl [chloroform, Chloroform (CHCl3)]
- Tox Group Mean, GLGC Identifier 1143: 131.83
- Tox Group Mean, GLGC Identifier 1409: 298.20
- Tox Group Mean, GLGC Identifier 1509: 431.65
- Tox Group Mean, GLGC Identifier 1581: 87.66
- Tox Group Mean, GLGC Identifier 1644: 418.83
- Tox Group Mean, GLGC Identifier 1652: 476.16
- Tox Group Mean, GLGC Identifier 1653: 686.13
- Tox Group Mean, GLGC Identifier 1877: 444.75
- Tox Group Mean, GLGC Identifier 1929: 536.97
- Tox Group Mean, GLGC Identifier 1949: 57.75
- Tox Group Mean, GLGC Identifier 2059: 219.06
- Tox Group Mean, GLGC Identifier 2439: 102.63
- Tox Group Mean, GLGC Identifier 2912: 1436.37
- Tox Group Mean, GLGC Identifier 3015: 2837.91
- Tox Group Mean, GLGC Identifier 3091: 421.64
- Tox Group Mean, GLGC Identifier 3803: 975.63
- Tox Group Mean, GLGC Identifier 3875: 252.35
- Tox Group Mean, GLGC Identifier 4178: 444.39
- Tox Group Mean, GLGC Identifier 4462: 414.41
- Tox Group Mean, GLGC Identifier 4463: 43.16
- Tox Group Mean, GLGC Identifier 4473: 95.76
- Tox Group Mean, GLGC Identifier 4933: 743.88
- Tox Group Mean, GLGC Identifier 5369: 274.28
- Tox Group Mean, GLGC Identifier 6127: 41.36
- Tox Group Mean, GLGC Identifier 6343: 46.79
- Tox Group Mean, GLGC Identifier 6641: 233.86
- Tox Group Mean, GLGC Identifier 7216: 123.29
- Tox Group Mean, GLGC Identifier 7299: 334.53
- Tox Group Mean, GLGC Identifier 7505: 274.29
- Tox Group Mean, GLGC Identifier 7622: 88.74
- Tox Group Mean, GLGC Identifier 7634: 538.91
- Tox Group Mean, GLGC Identifier 7936: 93.98
- Tox Group Mean, GLGC Identifier 8721: 73.87
- Tox Group Mean, GLGC Identifier 8829: 505.66
- Tox Group Mean, GLGC Identifier 8927: 508.53
- Tox Group Mean, GLGC Identifier 8946: 112.12
- Tox Group Mean, GLGC Identifier 9116: 269.31
- Tox Group Mean, GLGC Identifier 9176: 288.61
- Tox Group Mean, GLGC Identifier 9191: 277.28
- Tox Group Mean, GLGC Identifier 10130: 117.70
- Tox Group Mean, GLGC Identifier 11761: 49.48
- Tox Group Mean, GLGC Identifier 11843: 61.43
- Tox Group Mean, GLGC Identifier 11953: 1079.47
- Tox Group Mean, GLGC Identifier 12129: 245.65
- Tox Group Mean, GLGC Identifier 13610: 226.14
- Tox Group Mean, GLGC Identifier 13646: 1169.38
- Tox Group Mean, GLGC Identifier 13727: 35.36
- Tox Group Mean, GLGC Identifier 14267: 1171.51
- Tox Group Mean, GLGC Identifier 15072: 42.04
- Tox Group Mean, GLGC Identifier 15836: 121.07
- Tox Group Mean, GLGC Identifier 15964: 583.51
- Tox Group Mean, GLGC Identifier 16468: 831.97
- Tox Group Mean, GLGC Identifier 16469: 991.10
- Tox Group Mean, GLGC Identifier 16756: 361.18
- Tox Group Mean, GLGC Identifier 16948: 145.85
- Tox Group Mean, GLGC Identifier 16958: 61.46
- Tox Group Mean, GLGC Identifier 17361: 50.93
- Tox Group Mean, GLGC Identifier 17516: 500.55
- Tox Group Mean, GLGC Identifier 17524: 799.10
- Tox Group Mean, GLGC Identifier 17541: 1464.81
- Tox Group Mean, GLGC Identifier 18509: 311.54
- Tox Group Mean, GLGC Identifier 19110: 84.32
- Tox Group Mean, GLGC Identifier 19144: 36.63
- Tox Group Mean, GLGC Identifier 19377: 155.74
- Tox Group Mean, GLGC Identifier 19679: 440.67
- Tox Group Mean, GLGC Identifier 19822: 994.53
- Tox Group Mean, GLGC Identifier 20000: 93.69
- Tox Group Mean, GLGC Identifier 20582: 347.72
- Tox Group Mean, GLGC Identifier 20708: 80.85
- Tox Group Mean, GLGC Identifier 20725: 621.86
- Tox Group Mean, GLGC Identifier 20741: 236.26
- Tox Group Mean, GLGC Identifier 21025: 233.83
- Tox Group Mean, GLGC Identifier 21060: 133.69
- Tox Group Mean, GLGC Identifier 21061: 86.99
- Tox Group Mean, GLGC Identifier 21088: 56.92
- Tox Group Mean, GLGC Identifier 21562: 265.87
- Tox Group Mean, GLGC Identifier 22490: 811.57
- Tox Group Mean, GLGC Identifier 22537: 145.19
- Tox Group Mean, GLGC Identifier 22648: 313.31
- Tox Group Mean, GLGC Identifier 22783: 473.86
- Tox Group Mean, GLGC Identifier 22855: 373.13
- Tox Group Mean, GLGC Identifier 22985: 83.55
- Tox Group Mean, GLGC Identifier 23033: 431.39
- Tox Group Mean, GLGC Identifier 23115: 278.57
- Tox Group Mean, GLGC Identifier 23282: 425.15
- Tox Group Mean, GLGC Identifier 23718: 65.41
- Tox Group Mean, GLGC Identifier 24234: 408.25
- Tox Group Mean, GLGC Identifier 24437: 56.38
- Tox Group Mean, GLGC Identifier 25168: 32.68
- Tox Group Mean, GLGC Identifier 25643: 187.37
- Tox Group Mean, GLGC Identifier 25777: 1173.74
- Tox Group Mean, GLGC Identifier 25862: 38.61
- Tox Group Mean, GLGC Identifier 25921: 47.30
- Tox Group Mean, GLGC Identifier 26183: 64.68
